Source: PubChem BioAssay AID1259407 (Chemical Carcinogenesis Research Information System (CCRIS), 2018)
The source made the active and inactive calls. The rule behind the calls is not given here.

System: CCRIS mutagenicity, Ames/micronucleus/aberration tests
Assay: CCRIS mutagenicity studies
[1] = Test System: AMES SALMONELLA TYPHIMURIUM, Strain/Indicator: TA98, Metabolic Activation: NONE, Method: PREINCUBATION
[2] = Test System: AMES SALMONELLA TYPHIMURIUM, Strain/Indicator: TA98, Metabolic Activation: NONE, Method: STANDARD PLATE
[3] = Test System: AMES SALMONELLA TYPHIMURIUM, Strain/Indicator: TA100, Metabolic Activation: NONE, Method: PREINCUBATION
[4] = Test System: AMES SALMONELLA TYPHIMURIUM, Strain/Indicator: TA100, Metabolic Activation: NONE, Method: STANDARD PLATE

With `CC1=CC(C)(C)Nc2ccccc21` the mutagenic call (Test System: AMES SALMONELLA TYPHIMURIUM, Strain/Indicator: TA98, Metabolic Activation: HAMSTER, LIVER, S-9, AROCLOR 1254 (10%), Method: PREINCUBATION) was “inactive; negative”, the mutagenic call [1] was “inactive; negative” and the mutagenic call [2] was “inactive; negative”. The mutagenic call (Test System: AMES SALMONELLA TYPHIMURIUM, Strain/Indicator: TA98, Metabolic Activation: RAT, LIVER, S-9, AROCLOR 1254 (10%), Method: PREINCUBATION) was “inactive; negative”, the mutagenic call (Test System: AMES SALMONELLA TYPHIMURIUM, Strain/Indicator: TA98, Metabolic Activation: S-9, Method: STANDARD PLATE) was “inactive; negative” and the mutagenic call (Test System: AMES SALMONELLA TYPHIMURIUM, Strain/Indicator: TA100, Metabolic Activation: HAMSTER, LIVER, S-9, AROCLOR 1254 (10%), Method: PREINCUBATION) was “inactive; negative”. For the same molecule, the mutagenic call [3] was “inactive; negative”, the mutagenic call [4] was “inactive; negative” and the mutagenic call (Test System: AMES SALMONELLA TYPHIMURIUM, Strain/Indicator: TA100, Metabolic Activation: RAT, LIVER, S-9, AROCLOR 1254 (10%), Method: PREINCUBATION) was “inactive; negative”. The mutagenic call (Test System: AMES SALMONELLA TYPHIMURIUM, Strain/Indicator: TA100, Metabolic Activation: S-9, Method: STANDARD PLATE) was “inactive; negative”, the mutagenic call (Test System: AMES SALMONELLA TYPHIMURIUM, Strain/Indicator: TA1535, Metabolic Activation: HAMSTER, LIVER, S-9, AROCLOR 1254 (10%), Method: PREINCUBATION) was “inactive; negative” and the mutagenic call (Test System: AMES SALMONELLA TYPHIMURIUM, Strain/Indicator: TA1535, Metabolic Activation: NONE, Method: PREINCUBATION) was “inactive; negative”. The mutagenic call (Test System: AMES SALMONELLA TYPHIMURIUM, Strain/Indicator: TA1535, Metabolic Activation: RAT, LIVER, S-9, AROCLOR 1254 (10%), Method: PREINCUBATION) was “inactive; negative”, the mutagenic call (Test System: AMES SALMONELLA TYPHIMURIUM, Strain/Indicator: TA1537, Metabolic Activation: HAMSTER, LIVER, S-9, AROCLOR 1254 (10%), Method: PREINCUBATION) was “inactive; negative” and the mutagenic call (Test System: AMES SALMONELLA TYPHIMURIUM, Strain/Indicator: TA1537, Metabolic Activation: NONE, Method: PREINCUBATION) was “inactive; negative”. The mutagenic call (Test System: AMES SALMONELLA TYPHIMURIUM, Strain/Indicator: TA1537, Metabolic Activation: RAT, LIVER, S-9, AROCLOR 1254 (10%), Method: PREINCUBATION) was “inactive; negative”.
For `BrCc1ccc2c(c1)-c1cccc3cccc-2c13`, the mutagenic call [2] was “active; positive” and the mutagenic call [4] was “active; positive”.
For `CCOC(Cl)CCl` (configuration not stated), the mutagenic call (End Point: IN VITRO CHROMOSOMAL ABERRATIONS, Test System: CHL CELLS, Metabolic Activation: NONE) was “active; positive (structural and ploidy changes)” and the mutagenic call (End Point: IN VITRO CHROMOSOMAL ABERRATIONS, Test System: CHL CELLS, Metabolic Activation: RAT, LIVER, S-9, SODIUM PHENOBARBITAL AND 5,6-BENZOFLAVONE) was “active; positive (structural changes)”.
For `c1ccc2c(c1)ccc1c3ccccc3ccc21`, the mutagenic call (Test System: AMES SALMONELLA TYPHIMURIUM, Strain/Indicator: TA97, Metabolic Activation: NONE, Method: STANDARD PLATE) was “inactive; negative”, the mutagenic call (Test System: AMES SALMONELLA TYPHIMURIUM, Strain/Indicator: TA97, Metabolic Activation: RAT, LIVER, S-9, PCB, Method: STANDARD PLATE) was “active; positive” and the mutagenic call [2] was “inactive; negative”. For the same molecule, the mutagenic call (Test System: AMES SALMONELLA TYPHIMURIUM, Strain/Indicator: TA98, Metabolic Activation: RAT, LIVER, S-9, AROCLOR 1254, Method: STANDARD PLATE) was “active; positive”, the mutagenic call (Test System: AMES SALMONELLA TYPHIMURIUM, Strain/Indicator: TA98, Metabolic Activation: RAT, LIVER, S-9, PCB, Method: STANDARD PLATE) was “active; positive” and the mutagenic call [4] was “inactive; negative”. For the same molecule, the mutagenic call (Test System: AMES SALMONELLA TYPHIMURIUM, Strain/Indicator: TA100, Metabolic Activation: POOLED HUMAN LIVER MICROSOMES, Method: PREINCUBATION) was “inactive; negative”, the mutagenic call (Test System: AMES SALMONELLA TYPHIMURIUM, Strain/Indicator: TA100, Metabolic Activation: RAT, LIVER, MICROSOMES, AROCLOR 1254, Method: STANDARD PLATE) was “active; positive” and the mutagenic call (Test System: AMES SALMONELLA TYPHIMURIUM, Strain/Indicator: TA100, Metabolic Activation: RAT, LIVER, MICROSOMES, CHRYSENE, Method: STANDARD PLATE) was “inactive; negative”. The mutagenic call (Test System: AMES SALMONELLA TYPHIMURIUM, Strain/Indicator: TA100, Metabolic Activation: RAT, LIVER, MICROSOMES, Method: STANDARD PLATE) was “inactive; negative”, the mutagenic call (Test System: AMES SALMONELLA TYPHIMURIUM, Strain/Indicator: TA100, Metabolic Activation: RAT, LIVER, S-9, AROCLOR 1254, Method: STANDARD PLATE) was “active; positive” and the mutagenic call (Test System: AMES SALMONELLA TYPHIMURIUM, Strain/Indicator: TA100, Metabolic Activation: RAT, LIVER, S-9, PCB, Method: STANDARD PLATE) was “active; positive”. For the same molecule, the mutagenic call (Test System: AMES SALMONELLA TYPHIMURIUM, Strain/Indicator: TA100, Metabolic Activation: RAT, LIVER, S-9, PHENOBARBITAL AND 5,6-BENZOFLAVONE, Method: PREINCUBATION) was “active; positive”, the mutagenic call (Test System: CHINESE HAMSTER OVARY, Strain/Indicator: CHO-K1-BH4 (HGPRT)/6-THIOGUANINE, Metabolic Activation: NONE, Method: STANDARD PLATE) was “inactive; negative” and the mutagenic call (Test System: CHINESE HAMSTER OVARY, Strain/Indicator: CHO-K1-BH4 (HGPRT)/6-THIOGUANINE, Metabolic Activation: RAT, LIVER, S-9, AROCLOR 1254, Method: STANDARD PLATE) was “active; positive”. For the same molecule, the mutagenic call (Test System: CHINESE HAMSTER OVARY, Strain/Indicator: CHO-UV5 (HGPRT)/6-THIOGUANINE, Metabolic Activation: NONE, Method: STANDARD PLATE) was “inactive; negative”, the mutagenic call (Test System: CHINESE HAMSTER OVARY, Strain/Indicator: CHO-UV5 (HGPRT)/6-THIOGUANINE, Metabolic Activation: RAT, LIVER, S-9, AROCLOR 1254, Method: STANDARD PLATE) was “active; positive” and the mutagenic call (Test System: LACZ TRANSGENIC MOUSE (MUTATM MOUSE), Strain/Indicator: LACZ MUTANT FREQUENCY, Method: LIVER, SPLEEN, LUNG, KIDNEY, BONE MARROW, COLON HARVESTED 7 D AFTER LAST DOSE, DNA ISOLATED) was “active; positive; g:c to t:a transversions in all organs”.
For `COc1ccccc1/C=C/C=C(/C#N)c1ccc(Br)cc1`, the mutagenic call (Test System: AMES SALMONELLA TYPHIMURIUM, Strain/Indicator: TA97A, Metabolic Activation: NONE, Method: STANDARD PLATE) was “active; positive”.
With `CC1(C)C[C@H]2C=C(C=O)[C@]3(C=O)C[C@]3(C)[C@H]2C1` the mutagenic call [2] was “active; positive”, the mutagenic call [4] was “active; positive” and the mutagenic call (Test System: AMES SALMONELLA TYPHIMURIUM, Strain/Indicator: TA2637, Metabolic Activation: NONE, Method: STANDARD PLATE) was “active; positive”. For the same molecule, the mutagenic call (Test System: CHINESE HAMSTER V-79, Strain/Indicator: V-79/6-THIOGUANINE (HGPRT), Metabolic Activation: NONE) was “active; positive”.
For `CC(=O)c1cccc2c1OC1(C)OOC21C` (configuration not stated), the mutagenic call [3] was “active; positive”.
For `C#CC1(O)CC[C@H]2[C@@H]3CCC4=CCCC[C@@H]4[C@H]3CC[C@@]21C` (some centres not stated), the mutagenic call (End Point: IN VIVO CHROMOSOMAL ABERRATIONS, Test System: BONE MARROW CELLS, Species: MOUSE, Strain/Sex: SWISS ALBINO/FEMALE, Route: IP INJECTION) was “active; positive (structural changes)”.
`c1ccc2nc3c4ccccc4c4ccccc4c3cc2c1` was tested, and the mutagenic call (Test System: AMES SALMONELLA TYPHIMURIUM, Strain/Indicator: TA100, Metabolic Activation: RAT, LIVER, S-9, PHENOBARBITAL AND 5,6-BENZOFLAVONE, Method: STANDARD PLATE) was “active; positive”.
In the case of `ClC1OC1CBr` (configuration not stated), the mutagenic call [3] is reported as “active; positive”.
With `O=[N+]([O-])c1ccc(-[n+]2nc(-c3ccccc3)nn2-c2ccc(I)cc2)cc1` the mutagenic call (Test System: AMES SALMONELLA TYPHIMURIUM, Strain/Indicator: TA97, Metabolic Activation: NONE, Method: SPOT TEST) was “inactive; negative”, the mutagenic call [1] was “inactive; negative” and the mutagenic call (Test System: AMES SALMONELLA TYPHIMURIUM, Strain/Indicator: TA98, Metabolic Activation: NONE, Method: SPOT TEST) was “inactive; negative”. For the same molecule, the mutagenic call [3] was “inactive; negative”, the mutagenic call (Test System: AMES SALMONELLA TYPHIMURIUM, Strain/Indicator: TA100, Metabolic Activation: NONE, Method: SPOT TEST) was “inactive; negative” and the mutagenic call (Test System: AMES SALMONELLA TYPHIMURIUM, Strain/Indicator: TA102, Metabolic Activation: NONE, Method: SPOT TEST) was “inactive; negative”.
With `CC(=O)Nc1ccnc2ccccc12` the mutagenic call [1] was “inactive; negative”, the mutagenic call (Test System: AMES SALMONELLA TYPHIMURIUM, Strain/Indicator: TA98, Metabolic Activation: RAT, LIVER, S-9, KANECHLOR 500, Method: PREINCUBATION) was “inactive; negative” and the mutagenic call [3] was “inactive; negative”. For the same molecule, the mutagenic call (Test System: AMES SALMONELLA TYPHIMURIUM, Strain/Indicator: TA100, Metabolic Activation: RAT, LIVER, S-9, KANECHLOR 500, Method: PREINCUBATION) was “inactive; negative”.
